What was measured:
[1] = system: hemoglobin or ferritin-related stores; details: given in early stage of iron deficiency (ferritin below 100 ug/L or transferrin saturation below 20%)
[2] = system: hemoglobin or ferritin-related stores; details: cited from earlier work

iron dextran
hemoglobin response [1]: without a concomitant increase in hemoglobin | serum ferritin response [1]: rise in serum ferritin | quantitative iron utilization for hemoglobin or ferritin-related stores ([2]; dialysis-associated anemia, within the first 90 days after infusion, previous retrospective analysis): highly variable and incomplete within the first 90 days | recovery of iron for hemoglobin synthesis or iron stores ([2]; iron deficiency anemia and normal renal function, early after intravenous infusion): incomplete
